The values that follow are results of earlier work, collected in article PMC11390321 (Cancer chemotherapy and pharmacology, 2024).

For the data set the following is noted: tumor-bearing mice, orally administered; cited from earlier work.

The structures appear in SMILES notation.

With `C[C@@H]1COCCN1c1cc(C2([S@](C)(=N)=O)CC2)nc(-c2cc[nH]c3nccc2-3)n1` [ceralasertib], the “bone marrow exposure relative to plasma” value is given as 4.60 fold.
